The text below walks through data of patent publication EP0181129B1, “N6-substituted deoxyribose analogs of adenosines” (WARNER-LAMBERT COMPANY, priority 1984, dated 1986).

One data set deals with T1, adenosine A1 receptor (Rattus norvegicus, UniProt P25099).
T1 construct: brain minus cerebellum and brainstem from male Long Evans rats (150-200 g) was homogenized; from tissue; host or cells: rat whole brain minus cerebellum and brainstem, membrane homogenate
T1 sequence (P25099 1-326): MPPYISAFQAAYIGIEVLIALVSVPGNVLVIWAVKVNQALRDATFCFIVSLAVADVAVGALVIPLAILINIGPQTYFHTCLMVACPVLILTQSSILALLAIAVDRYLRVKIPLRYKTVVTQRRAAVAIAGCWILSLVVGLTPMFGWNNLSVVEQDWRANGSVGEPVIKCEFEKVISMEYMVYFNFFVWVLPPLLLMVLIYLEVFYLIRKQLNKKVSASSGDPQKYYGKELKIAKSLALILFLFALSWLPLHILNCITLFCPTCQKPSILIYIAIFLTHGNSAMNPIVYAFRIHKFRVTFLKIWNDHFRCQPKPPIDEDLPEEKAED
Description: Adenosine Receptor Binding - A1 Receptor Affinity (RBA1), [3H]-CHA displacement. Conditions: 1.0 nM [3H]-CHA, rat whole brain membranes, one hour at 25°C; read-out: Receptor Binding RBA—1. The method, then: While brain minus cerebellum and brainstem from male Long Evans rats (150-200 g) was homogenized in 30 volumes of ice-cold 0.05 M Tris-CHI buffer pH 7.7 using a Brinkman Polytron PT-10, (setting number 6 for 20 seconds) and centrifuged for ten minutes at 20,000 x g (Sorvall RC-2), 4°C. The supernatant was discarded, and the pellet was resuspended and centrifuged as before. The pellet was resuspended in 20 ml Tris-HCI buffer containing two International Units/ml of adenosine deaminase (Sigma type III from calf intestinal mucosa), incubated at 37°C for 30 minutes, then subsequently at 0°C for ten minutes. The homogenate was again centrifuged, and the final pellet was resuspended in ice-cold 0.05 M Tris-HCI buffer pH 7.7 to a concentration of 20 mg/ml original wet tissue weight and used immediately.
Tissue homogenate (10 mg/ml) was incubated in 0.05 M Tris-HCI buffer pH 7.7 containing 1.0 nM (^3H]-N^e-cyclohexyladenosine ([^3H]-CHA) with or without tests agents in triplicate for one hour at 25°C. Incubation volume was 2 ml. Unbound [^3H]-CHA was separated by rapid filtration under reduced pressure through Whatman glass fiber (GF/B) filters. The filters were rinsed three times with 5 ml of ice cold 0.05 M Tris-HCI buffer pH 7.7. The radio-labeled ligand retained on the filter was measured by liquid scintillation spectrophotometry after shaking the filters for one hour or longer on a mechanical shaker in 10 ml of Beckman Ready-Solv HP scintillation cocktail.
Nonspecific binding was defined as the binding which occurred in the presence of 1 mM theophylline. […] The Scatchard plot was calculated by linear regression of the line obtained by plotting the amount of radioligand bound (pmoles/gram of tissue) [formula] Since the amount of radioligand bound was a small fraction of the total amount added, free radioligand was defined as the concentration (nM) of radioligand added to the incubation mixture. The Hill coefficient was calculated by linear regression of the line obtained by plotting the log of the bound radioligand vs the log of the [formula] The maximal number of binding sites (Bmax) was calculated from the Scatchard plot.

A further data set deals with Swiss-Webster male mice. Description: Mouse Activity and Screen Test Procedure (MAST). The data set is classed as in vivo. Conditions: for Inhibition of Mouse Locomotor Activity: one hour prior to testing; for Screen Test Failure: percent of mice falling off the screen. The text has this:
The compounds of the invention are new chemical substances which are useful as pharmaceutical agents for the treatment of psychoses. The antipsychotic activity of representative compounds of the invention was established by the Mouse Activity and Screen Test Procedure (MAST) described below.
Nine unfasted Swiss-Webster male mice weighing 20-30 g are equally divided into three groups for each drug dose to be tested. That is, data for each dose level was generated by three separate groups of three mice each.
A minimum of three dose levels (10, 30, and 100 mg/kg) are tested for each drug. Treatments are administered intraperitoneally one hour prior to testing. All dosages are calculated as parent compound and given in volumes of 10 ml/kg. Compounds are dissolved or suspended in 0.2% Methocel. Control animals are injected with Methocel.
A two part testing procedure is started one hour post injection. First, the screen test (ST) is performed (see Pharmac. Biochem. Behav. 6, 351-353, 1977). Briefly this test consists of placing mice on individual wire screens which are then rotated 180 degrees at the start of a 60 second observation period. The number of mice falling off the inverted screen is recorded.
Immediately following the screen test, the final phase of testing is initiated by placing each group of three mice in one actophotometer (Life Sciences, 22,1067-1076,1978). The actophotometer consists of a cylindrical chamber whose center is occupied by another cylinder which contains the illumination for six photocells located on the perimeter of the chamber. Six light-beam interruptions equal one count. Locomotor activity is recorded by computer at ten minutes intervals for 60 minutes.
The data obtained from the screen test are expressed as percent of mice falling off the screen. Data derived from locomotor activity of drug treated mice are compared to the activity of vehicle treated animals and are expressed as percent inhibition of spontaneous locomotion. All percentages reported for inhibition of locomotion (LI) are based upon data accumulated for one hour. Both phases of testing are graded: A=60-100%; C=31-59%; and N=0-30%. An overall dose rating is obtained by the following criteria:
LAD refers to the lowest dose at which an A rating is achieved. […] Utilizing this procedure, an overall dose rating of A was obtained for the noted compound at the indicated dose. The compounds are identified in the Examples.

Where [1] appears, read: Dose 10 mg/kg intraperitoneally.
Setting [2] is: Dose 30 mg/kg intraperitoneally.
[3] abbreviates: Dose 0.3 mg/kg intraperitoneally.

“And” between values parts separate entries of the source, which are not always exact repeats. Equal entries are not always repeated.

On to `C[C@H]1O[C@@H](n2cnc3c(NC4CCCc5ccccc54)ncnc32)[C@H](O)[C@@H]1O` (stereo partly shown) [Example 19, N^6-1-Tetralinyl-5' -deoxyadenosine], for which, at adenosine A1 receptor, the IC50 worked out at 1370 nM. Besides, the figures for the “Inhibition of Mouse Locomotor Activity” value in the data set with Swiss-Webster male mice (Dose 3 mg/kg intraperitoneally), with Swiss-Webster male mice (setting [1]) and in the data set on Swiss-Webster male mice (setting [2]) were 36%, 55% and 83%, respectively. Further, the “Screen Test Failure” value in the data set on Swiss-Webster male mice (Dose 3 mg/kg intraperitoneally) is 11%; with Swiss-Webster male mice (setting [1]), 0%; in the data set on Swiss-Webster male mice (setting [2]), 0%.
On to `C[C@H]1O[C@@H](n2cnc3c(NCc4cccc5ccccc45)ncnc32)[C@H](O)[C@@H]1O` [Example 20, N^6-α-Naphthylmethyl-5' -deoxyadenosine], for which the IC50 on adenosine A1 receptor is 1010 nM. Moreover, the results for the “Inhibition of Mouse Locomotor Activity” value in the data set on Swiss-Webster male mice (Dose 3 mg/kg intraperitoneally), in the data set with Swiss-Webster male mice (setting [1]) and with Swiss-Webster male mice (setting [2]) were −1%, 49% and 81%, respectively. Further, the “Screen Test Failure” value with Swiss-Webster male mice (Dose 3 mg/kg intraperitoneally), in the data set on Swiss-Webster male mice (setting [1]) and in the data set on Swiss-Webster male mice (setting [2]) was 0% throughout.
With `O[C@@H]1[C@H](O)[C@@H](CCl)O[C@H]1n1cnc2c(NC3CCc4ccccc43)ncnc21` (stereo partly drawn) [Example 23, (R)-N^6(1-Indanyl)-5'-deoxy-5'-chloroadenosine], the IC50 on adenosine A1 receptor came to 80 nM. The “Inhibition of Mouse Locomotor Activity” value in the data set on Swiss-Webster male mice (setting [3]) is −2%; in the data set on Swiss-Webster male mice (Dose 1 mg/kg intraperitoneally, 1 mg/kg), 0% and 7%; in the data set with Swiss-Webster male mice (Dose 3 mg/kg intraperitoneally), 48%; with Swiss-Webster male mice (setting [1]), 76%; with Swiss-Webster male mice (setting [2]) it was 81%. For the same molecule, the “Screen Test Failure” value in the data set with Swiss-Webster male mice (setting [3]), with Swiss-Webster male mice (Dose 1 mg/kg intraperitoneally), in the data set on Swiss-Webster male mice (Dose 3 mg/kg intraperitoneally), with Swiss-Webster male mice (setting [1]) and in the data set with Swiss-Webster male mice (setting [2]) was 0% in each case.
